Assay results from US20090036388A1, “Compounds” (priority 2007, published 2009).
Values after ≈ are worked out from the molar mass of the structure shown.

How the values were obtained:
[1] = system: Plasmodium falciparum strain 3D7A; assay: [3H] hypoxanthine incorporation IC50 assay, P. falciparum 3D7A; type: cell-based; details: 48 hours incubation; for IC50: Plasmodium falciparum
Protocol: (§1) Plasmodium falciparum strains 3D7A and W2.
(§2) The culture medium comprised RPMI 1640 with 25 mM HEPES, sodium bicarbonate and glutamine (GIBCO™ cat. ref.: 52400), supplemented with 10% of pooled human sera AB (Bioreclamation HMSRM-AB)) and HT supplement (0.15 mM hypoxanthine and 24 μM thymidine), (GIBCO™ cat. ref.: 41065). Human sera were decomplemented 30 min. at 56° C., aliquoted and stored frozen at −20° C. until use in this culture medium.
(§3) Red blood cells AB—stock suspensions were prepared from whole blood bags coming from incomplete blood donation, provided by the Spanish Red Cross (<25 days after sampling). This “whole blood” was aliquoted and stored at 4° C.
(§4) To prepare red blood cells for the assay, the whole blood was centrifuged and washed 3 times with RPMI without serum. The upper phase, containing white blood cells was removed. The washed red blood cells were kept as a 50% suspension in complete medium. The prepared cells were stored at 4° C. and were employed in the assay at any time up to 4 days after preparation.
(§5) Test compounds were dissolved at 2 mg/ml in 100% DMSO on the day of the assay. If necessary, complete dissolution was achieved by gentle heating (the mixture was heated at a temperature <37° C.) and sonication (sonication bath).
(§6) For IC50 determinations, 10 serial 2-fold dilutions were prepared in complete medium in the presence of a constant amount of DMSO. Any obvious signs of insolubility of the stock solutions in 100% DMSO or precipitation when these solutions were diluted in assay media, were recorded.
(§7) Plasmodium falciparum strains were maintained in complete medium at an hematocrit of 5% in continuous culture using a method adapted from Trager and Jensen (1, 2).
(§8) The parasitemia was calculated by counting the percentage of parasitized erythrocytes by optical microscopy. Thin films of blood were made every day from each culture flask, fixed with methanol and stained for 10 min. in Giemsa (Merck, cat. ref.: 1.09204) at 10% in buffered water pH 7.2. The glass slides were observed and counted with an optical microscope (Nikon, Eclipse E200) equipped with a 100× immersion oil objective.
(§9) The culture was maintained at an hematocrit of 5%, with a daily change of medium and was diluted when parasitemia had reached about 5%.
(§10) [^3H] Hypoxanthine incorporation assay was conducted using a method adapted from Desjardins et al. (3). The assays were performed in 96 wells flat bottom microplates.
(§11) 1. Serial dilutions of the test compounds (50 μl of a 5× solution/well) were deposited in duplicate. Compounds of this invention (Table 1) were tested in this assay. Chloroquine and Azithromycin were used as control compounds for each assay.
(§12) 3. [^3H]-Hypoxanthine (Amersham Biosciences, cat. ref.: TRK74) was added extemporaneously to the inoculum suspension at a concentration of 1 μCi/ml (equating to […]). 200 μl of the resulting suspension was distributed into each well (other than the control well H12 described below) leading to a final volume of 250 μl per well, at 1% of hematocrit and 0.4% of parasitemia/well.
(§13) 4. In each plate, 2 columns were reserved for control wells: • Column 11: Positive control wells: PRBCs with 0.2% DMSO—(i) to determine DMSO solvent effect on parasite growth (at a final concentration of 0.2%) and (ii) to compare with cultures treated with test compounds. • Column 12 (comprising wells A12-H12): • A12-D12—Background value wells: Uninfected RBCs—blank control to obtain the background reading from RBCs without parasites.
(§14) E12-G12—Solvent effect wells: PRBCs without DMSO—to determine DMSO solvent effect on PRBCs by comparing these wells with column 11 wells.
(§15) H12—Non-radioactive well: PRBCs with cold hypoxanthine—(i) to carry out a thin blood film to determine parasitemia value after incubation by microscopy and (ii) to ensure that the parasites have grown properly during the assay. […]

[2] = system: Plasmodium falciparum strain W2; assay: [3H] hypoxanthine incorporation IC50 assay, P. falciparum W2; type: cell-based; details: P. falciparum W2, 48 hours incubation
Protocol: as §1, §2, §3, §4, §5, §6, §7, §8, §9, §10, §11, §12, §13, §14, §15

Plasmodium berghei = details: cited from earlier work
[3] = system: Plasmodium yoelii nigeriensis; details: cited from earlier work
Plasmodium cynomolgi = details: rhesus monkey; cited from earlier work
Plasmodium vivax = details: non-immune patients, as compared to controls; cited from earlier work
Plasmodium falciparum = details: non-immune patients, as compared to controls; cited from earlier work

In the case of `CC[C@H]1OC(=O)[C@H](C)[C@@H](O[C@H]2C[C@@](C)(OC)[C@@H](O)[C@H](C)O2)[C@H](C)[C@@H](O[C@@H]2O[C@H](C)C[C@H](N(C)C)[C@H]2OCCCNC(=O)CCCNc2ccnc3cc(Cl)ccc23)[C@](C)(O)C[C@@H](C)CN(C)[C@H](C)[C@@H](O)[C@]1(C)O` [Example 1, 2′-O-[3-({4-[(7-chloro-4-quinolinyl)amino]butanoyl}amino)propyl]-9-deoxo-9a-methyl-9a-aza-9a-homoerythromycin A], the IC50 [1] is reported as ≤ 0.1 µg/mL and the IC50 [2] is reported as ≤ 0.1 µg/mL.
With `CC[C@H]1OC(=O)[C@H](C)[C@@H](O)[C@H](C)[C@@H](O[C@@H]2O[C@H](C)C[C@H](N(C)C)[C@H]2OCCCNC(=O)CCCNc2ccnc3cc(Cl)ccc23)[C@](C)(O)C[C@@H](C)CN(C)[C@H](C)[C@@H](O)[C@]1(C)O` [Example 2, 2′-O-[3-({4-[(7-chloro-4-quinolinyl)amino]butanoyl}amino)propyl]-3-O-decladinosyl-9-deoxo-9a-methyl-9a-aza-9a-homoerythromycin A] the IC50 [1] was 0.1 to 0.2 µg/mL (≈ 0.112 to 0.224 µM) and the IC50 [2] was 0.1 to 0.2 µg/mL (≈ 0.112 to 0.224 µM).
With `CC[C@H]1OC(=O)[C@H](C)[C@@H](O[C@H]2C[C@@](C)(OC)[C@@H](O)[C@H](C)O2)[C@H](C)[C@@H](O[C@@H]2O[C@H](C)C[C@H](N(C)C)[C@H]2OCCCNc2ccnc3ccccc23)[C@](C)(O)C[C@@H](C)CN(C)[C@H](C)[C@@H](O)[C@]1(C)O` [Example 6, 2′-O-{3-[(4-quinolinyl)amino]propyl}-9-deoxo-9a-methyl-9a-aza-9a-homoerythromycin A] the IC50 [1] was ≤ 0.1 µg/mL and the IC50 [2] was ≤ 0.1 µg/mL.
With `CC[C@H]1OC(=O)[C@H](C)[C@@H](O[C@H]2C[C@@](C)(OC)[C@@H](O)[C@H](C)O2)[C@H](C)[C@@H](O[C@@H]2O[C@H](C)C[C@H](N(C)C)[C@H]2OCCCNC(=O)CNc2ccnc3ccccc23)[C@](C)(O)C[C@@H](C)CN(C)[C@H](C)[C@@H](O)[C@]1(C)O` [Example 9, 2′-O-[3-({2-[(4-quinolinyl)amino]ethanoyl}amino)propyl]-9-deoxo-9a-methyl-9a-aza-9a-homoerythromycin A] the IC50 [1] was 0.1 to 0.2 µg/mL (≈ 0.101 to 0.202 µM) and the IC50 [2] was ≤ 0.1 µg/mL.
`CC[C@H]1OC(=O)[C@H](C)[C@@H](O[C@H]2C[C@@](C)(OC)[C@@H](O)[C@H](C)O2)[C@H](C)[C@@H](O[C@@H]2O[C@H](C)C[C@H](N(C)C)[C@H]2OCCCNC(=O)CCCNc2ccnc3ccccc23)[C@](C)(O)C[C@@H](C)CN(C)[C@H](C)[C@@H](O)[C@]1(C)O` [Example 12, 2′-O-[3-({4-[(4-quinolinyl)amino]butanoyl}amino)propyl]-9-deoxo-9a-methyl-9a-aza-9a-homoerythromycin A] gave an IC50 [1] of 0.2 to 1 µg/mL (≈ 0.196 to 0.982 µM) and an IC50 [2] of 0.1 to 0.2 µg/mL (≈ 0.0982 to 0.196 µM).
Work on `CC[C@H]1OC(=O)[C@H](C)[C@@H](O)[C@H](C)[C@@H](O[C@@H]2O[C@H](C)C[C@H](N(C)C)[C@H]2OCCCNC(=O)CNc2ccnc3ccccc23)[C@](C)(O)C[C@@H](C)CN(C)[C@H](C)[C@@H](O)[C@]1(C)O` [Example 10, 2′-O-[3-({2-[(4-quinolinyl)amino]ethanoyl}amino)propyl]-3-O-decladinosyl-9-deoxo-9a-methyl-9a-aza-9a-homoerythromycin A] yielded an IC50 [1] of 1 to 2.5 µg/mL (≈ 1.2 to 3 µM) and an IC50 [2] of 0.2 to 1 µg/mL (≈ 0.24 to 1.2 µM).
With `CC[C@H]1OC(=O)[C@H](C)[C@@H](O[C@H]2C[C@@](C)(OC)[C@@H](O)[C@H](C)O2)[C@H](C)[C@@H](O[C@@H]2O[C@H](C)C[C@H](N(C)C)[C@H]2OCCCNC(=O)CNc2ccnc3cc(Cl)ccc23)[C@](C)(O)C[C@@H](C)CN(C)[C@H](C)[C@@H](O)[C@]1(C)O` [Example 7, 2′-O-[3-({2-[(7-chloro-4-quinolinyl)amino]ethanoyl}amino)propyl]-9-deoxo-9a-methyl-9a-aza-9a-homoerythromycin A] the IC50 [1] was ≤ 0.1 µg/mL and the IC50 [2] was ≤ 0.1 µg/mL.
In the case of midecamycinin, the “activity in mouse model” value (Plasmodium berghei) is given as “active”, the “activity in mouse model” value [3] is given as “active” and the “efficacy in monkey model” value (Plasmodium cynomolgi) is given as “no efficacy”.
In the case of `CC[C@H]1OC(=O)[C@H](C)[C@@H](O[C@H]2C[C@@](C)(OC)[C@@H](O)[C@H](C)O2)[C@H](C)[C@@H](O[C@@H]2O[C@H](C)C[C@H](N(C)C)[C@H]2OCCC(=O)NCCNc2ccnc3cc(Cl)ccc23)[C@](C)(O)C[C@@H](C)CN(C)[C@H](C)[C@@H](O)[C@]1(C)O` [Example 11, 2′-O-[3-({2-[(7-chloro-4-quinolinyl)amino]ethyl}amino)-3-oxopropyl]9-deoxo-9a-methyl—9a-aza-9a-homoerythromycin A], the IC50 [1] is reported as ≤ 0.1 µg/mL and the IC50 [2] is reported as ≤ 0.1 µg/mL.
For `CC[C@H]1OC(=O)[C@H](C)[C@@H](O[C@H]2C[C@@](C)(OC)[C@@H](O)[C@H](C)O2)[C@H](C)[C@@H](O[C@@H]2O[C@H](C)C[C@H](N(C)C)[C@H]2O)[C@](C)(O)C[C@@H](C)CN(C)[C@H](C)[C@@H](O)[C@]1(C)O` [azithromycin], the “prophylactic efficacy for Plasmodium vivax” value (Plasmodium vivax) is given as 98.9%, the “IC50 3D7A” value [1] is given as “H, >H” and the “efficacy in monkey model” value (Plasmodium cynomolgi) is given as “active”. The “prophylactic efficacy for Plasmodium falciparum” value (Plasmodium falciparum) was 71.6% and the IC50 [2] was 2.5 to 3 µg/mL (≈ 3.34 to 4.01 µM).
With `CC[C@H]1OC(=O)[C@H](C)[C@@H](O[C@H]2C[C@@](C)(OC)[C@@H](O)[C@H](C)O2)[C@H](C)[C@@H](O[C@@H]2O[C@H](C)C[C@H](N(C)C)[C@H]2OCCCNc2ccnc3cc(Cl)ccc23)[C@](C)(O)C[C@@H](C)CN(C)[C@H](C)[C@@H](O)[C@]1(C)O` [Example 3, 2′-O-{3-[(7-Chloro-4-quinolinyl)amino]propyl}-9-deoxo-9a-methyl-9a-aza-9a-homoerythromycin A] the IC50 [1] was ≤ 0.1 µg/mL and the IC50 [2] was ≤ 0.1 µg/mL.
With `CC[C@H]1OC(=O)[C@H](C)[C@@H](O)[C@H](C)[C@@H](O[C@@H]2O[C@H](C)C[C@H](N(C)C)[C@H]2OCCCNc2ccnc3cc(Cl)ccc23)[C@](C)(O)C[C@@H](C)CN(C)[C@H](C)[C@@H](OC(C)=O)[C@]1(C)O` [Example 4, 11-O-Acetyl-2′-O-{3-[(7-Chloro-4-quinolinyl)amino]propyl}-3-O-decladinosyl-9-deoxo-9a-methyl-9a-aza-9a-homoerythromycin A] the IC50 [1] was ≤ 0.1 µg/mL and the IC50 [2] was ≤ 0.1 µg/mL.
With `CC[C@H]1OC(=O)[C@H](C)[C@@H](O)[C@H](C)[C@@H](O[C@@H]2O[C@H](C)C[C@H](N(C)C)[C@H]2OCCCNc2ccnc3cc(Cl)ccc23)[C@](C)(O)C[C@@H](C)CN(C)[C@H](C)[C@@H](O)[C@]1(C)O` [Example 5, 2′-O-{3-[(7-Chloro-4-quinolinyl)amino]propyl}-3-O-decladinosyl-9-deoxo-9a-methyl-9a-aza-9a-homoerythromycin A] the IC50 [1] was ≤ 0.1 µg/mL and the IC50 [2] was ≤ 0.1 µg/mL.
For `CC[C@H]1OC(=O)[C@H](C)[C@@H](O)[C@H](C)[C@@H](O[C@@H]2O[C@H](C)C[C@H](N(C)C)[C@H]2OCCCNC(=O)CNc2ccnc3cc(Cl)ccc23)[C@](C)(O)C[C@@H](C)CN(C)[C@H](C)[C@@H](O)[C@]1(C)O` [Example 8, 2′-O-[3-({2-[(7-chloro-4-quinolinyl)amino]ethanoyl}amino)propyl]-3-O-decladinosyl-9-deoxo-9a-methyl-9a-aza-9a-homoerythromycin A], the IC50 [1] was ≤ 0.1 µg/mL and the IC50 [2] was 0.1 to 0.2 µg/mL (≈ 0.115 to 0.231 µM).
